The species entered for assay [1] is Mus musculus. The assay can be described thus: animal or person. The class given is functional. Particulars: po.
Description: In vivo inhibitory activity against mouse hepatic cholesterol synthesis administered orally at 24 mpk
A further assay has as its target T1, Squalene synthase (Rattus norvegicus, UniProt Q02769).
T1 sequence (Q02769 whole entry): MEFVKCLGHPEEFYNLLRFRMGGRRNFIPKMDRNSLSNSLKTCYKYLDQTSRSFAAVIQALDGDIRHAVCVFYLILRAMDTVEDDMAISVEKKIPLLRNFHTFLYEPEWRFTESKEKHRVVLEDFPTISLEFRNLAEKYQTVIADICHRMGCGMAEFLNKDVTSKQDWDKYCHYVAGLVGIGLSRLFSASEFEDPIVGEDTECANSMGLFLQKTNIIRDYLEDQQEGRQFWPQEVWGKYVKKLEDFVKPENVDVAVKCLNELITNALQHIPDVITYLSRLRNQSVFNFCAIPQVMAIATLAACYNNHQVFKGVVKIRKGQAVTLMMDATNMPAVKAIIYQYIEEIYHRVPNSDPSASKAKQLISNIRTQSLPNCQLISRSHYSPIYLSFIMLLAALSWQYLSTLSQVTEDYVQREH
The assay is described as follows: In vitro inhibitory activity against rat squalene synthase.

Assay [2] has as its system Mus musculus. The assay can be described thus: In vivo inhibitory activity against mouse hepatic cholesterol synthesis administered subcutaneously. It counts as functional. The note with it: sc.
In assay [3] the test system is Mus musculus. The assay is described as follows: In vivo inhibitory activity against mouse hepatic cholesterol synthesis administered orally at 48 mpk. It counts as functional. The note with it: po.
The test system of assay [4] is Mus musculus. The assay can be described thus: In vivo inhibitory activity against mouse hepatic cholesterol synthesis administered orally at 40 mpk. The note with it: po. The class given is functional.

Each structure is given as a SMILES string.

Broadly, the inhibition in vivo is the share of the control response that was lost under treatment. The compound `C=C(CCC12OC(C(=O)O)C(O)(C(=O)O)C(C(=O)O)(O1)[C@H](O)[C@H]2O)[C@@H](OC(C)=O)[C@H](C)Cc1ccccc1` (stereo partly drawn) came in with an inhibition in vivo at 24 mg/kg in the assay listed under Mus musculus [1] of 34%.
Broadly, the IC50 is the concentration needed to halve the response being measured. A low value points to greater potency in that assay. A word on the ED50: it is the midpoint of the dose-response relation. A higher ED50 goes with weaker potency. In the case of `C/C(=C\C(C)Cc1ccccc1)CCCCCC(C(=O)O)C(O)(CC(=O)O)C(=O)O` (stereo not drawn), on Squalene synthase, it took 0.26 µM to reach half-maximal inhibition (IC50). Further, in the assay with Mus musculus [2], the median effective dose (ED50) was determined as 15 mg/kg. In the assay with Mus musculus [3], this compound showed an inhibition in vivo at 48 mg/kg of 0%.
`CCCCCCCCCCCCCCCCC(C(=O)O)C(O)(CC(=O)O)C(=O)O` (stereo not drawn) showed an IC50 on Squalene synthase of 9 µM. In addition, at 48 mg/kg the inhibition in vivo in the assay with Mus musculus [3] was 0%.
In the case of `C=C(CCC12OC(C(=O)O)C(O)(C(=O)O)C(C(=O)O)(O1)[C@H](OC(=O)/C=C/[C@@H](C)C[C@@H](C)CC)[C@H]2O)[C@@H](OC(C)=O)[C@H](C)Cc1ccccc1` (stereo partly drawn) [ZARAGOZIC ACID A], the 50% effect level in the assay with Mus musculus [2] (ED50) was put at a dose of 0.2 mg/kg. In addition, the inhibition in vivo at 40 mg/kg with Mus musculus [4] was determined as 20%.
